Experimental data as given in publication PMC10089289, “Well-Defined Heparin Mimetics Can Inhibit Binding of the Trimeric Spike of SARS-CoV-2 in a Length-Dependent Manner” (JACS Au, 2023).

Biological target: SARS-CoV-2 Delta RBD binding to Vero E6 cells (Severe acute respiratory syndrome coronavirus 2, UniProt P0DTC2, L452R/T478K)
Format: cell-based

In the case of `NCCCCCOC1OC(COS(=O)(=O)O)C(OC2OC(C(=O)O)C(OC3OC(COS(=O)(=O)O)C(OC4OC(C(=O)O)C(OC5OC(COS(=O)(=O)O)C(OC6OC(C(=O)O)C(O)C(O)C6O)C(O)C5NS(=O)(=O)O)C(O)C4OS(=O)(=O)O)C(O)C3NS(=O)(=O)O)C(O)C2OS(=O)(=O)O)C(O)C1NS(=O)(=O)O` (stereo not shown) [Compound 1, GlcA-GlcNS6S-IdoA2S-GlcNS6S-IdoA2S-GlcNS6S], the “Inhibition of delta RBD binding to Vero E6 cells” value is reported as “does not display inhibition”.
